Patent US10787423B2, “Piperazine and piperidine derivatives, their synthesis and use thereof in inhibiting VDAC oligomerization, apoptosis and mitochondria dysfunction” (THE NATIONAL INSTITUTE FOR BIOTECHNOLOGY IN THE NEGEV LTD., priority 2015, dated 2020)

Legend:
HeLa cells = experiment: Selenite-induced cell death in HeLa cells, PI staining and flow cytometry; format: cell-based
Protocol: (§1) Cells, e.g. HeLa cells (2×10^5), untreated or treated with apoptosis-inducing reagents, were analyzed for apoptotic cell death using PI, annexin V-FITC and flow cytometer analysis. Cells were collected (1500×g for 10 min), washed, and resuspended in 200 μl binding buffer (10 mM HEPES/NaOH, pH 7.4, 140 mM NaCl, and 2.5 mM CaCl2). Annexin V-FITC was added according to the recommended Protocol (Enzo Life Sciences, Switzerland), and the cells were incubated in the dark for 15 min. Cells were then washed with binding buffer and resuspended in 200 μl binding buffer, to which PI was added immediately before flow cytometry analysis. At least 10,000 events were collected, recorded on a dot plot, and analyzed by the FACSCalibur™ flow cytometer software (BD Biosciences, Franklin Lakes, N.J.).
HeLa cells were incubated with varying concentrations (2-20 μM) of racemic compound of Formula 1 (VBIT-4) and of the enantiomers of compound of Formula 1 (VBIT-4-1 and VBIT-4-2) for 1 hour, and then with or without selenite (25 μM, 3 hours). Cells were harvested and assayed for apoptotic cell death, using PI staining and FACS analysis. The results shown in the FIG. 14b correspond to means±SD (n=3).
Cells (2.5 mg/ml) were washed with and resuspended in PBS, pH 8.3 and incubated with membrane-permeable cross-linker EGS (250 μM) at 30° C. for 15 min and then subjected to SDS-PAGE and immunoblotting using anti-VDAC1 antibodies. Several anti-VDAC1 antibody-labeled protein bands were obtained upon exposure to the apoptosis stimuli that are correspond to VDAC1 dimers, trimers, tetramers and multimers. Cell death as induced by selenite and inhibited by the compound of Formula 3 (VBIT-12) or compound of Formula 11 (DIV00781) is shown (FIG. 21B), with closed circles corresponding to the compound of Formula 3 and open circles corresponding to the compound of Formula 11. Cell death was analyzed using propidium iodide (PI) staining and flow cytometry.

HEK-293 cells = experiment: Selenite-induced apoptosis, annexin V-FITC/PI staining and FACS, HEK-293 cells; format: cell-based; details: Homo sapiens, HEK293, compound 2 h then selenite 15 μM 4 h, means±SD (n=3)
Protocol: The ability of the compounds of general Formulae (I), (Ia), (Ib), (Ic), (Id), (II) and (IIa) to inhibit apoptosis may be analyzed by annexin-V/propidium iodide (PI) staining and flow cytometry.
as §1
b. Additionally, the inhibition of selenite-induced apoptosis by the compounds as analyzed using annexin V-FITC/PI staining and FACS, presented in the FIG. 15c.
d. IC50 values of the tested compounds were derived from the obtained data. The results shown correspond to means±SD (n=3).

purified rat VDAC1 = molecular target: T1, purified rat VDAC1 (Rattus norvegicus, UniProt Q9Z2L0); experiment: VDAC1 channel conductance in planar lipid bilayer; format: biochemical; details: for IC50 / Max Inhibition (maximal reduction in channel conductance): planar lipid bilayer, measured at +10 mV and −10 mV
T1 construct: from tissue; host or cells: rat liver mitochondria
Description: The direct interaction between VDAC and the compounds of general Formulae (I), (Ia), (Ib), (Ic), (Id), (II) and (IIa), especially the specific compounds of Formulae 1, 2, 3, 10 and 11, may be measured by assessing VDAC channel conductance, following its reconstitution into a planar lipid bilayer (PLB). The compounds of the general Formulae (I), (Ia), (Ib), (Ic), (Id), (II) and (IIa), interact with VDAC and reduce its channel conductance. To obtain quantitative parameters of this interaction and derive a dissociation constant, e.g. a microscale thermophoresis (MST) interaction assay may be performed. In this manner, dissociation values are derived from the curves showing the affinity of the compounds of the invention to VDAC.
Briefly, rat liver mitochondria (5 mg/ml) in 10 mM Tris-HCl, pH 7.2, were incubated with 2% LDAO at 0° C. for 20 min, followed by centrifugation (30 min, 14,000 g) and the obtained supernatant was loaded onto a dry celite:hydroxyapatite (2:1) column. VDAC1 was eluted with a solution containing 2% LDAO, 10 mM Tris-HCl, pH 7.2, 50 mM NaCl, and 20 to 22 mM NaH2PO4, with VDAC1 detection by Coomassie blue staining. The VDAC1-containing fractions were dialyzed against 10 mM Tris-HCl, pH 7.2, and subjected to a second chromatography step on a carboxymethyl-cellulose (CMC) column from which VDAC1 was eluted with a solution containing 10 mM Tris-HCl, pH 7.2, 0.1% LDAO and 500 mM NaCl, detected as above. The VDAC1-containing fractions were collected and used for VDAC1 channel conductance and MST assays.
The reconstitution of purified rat VDAC1 into a planar lipid bilayer (PLB) and subsequent single and multiple channel current recordings and data analysis were carried out as follows. Briefly, the PLB was prepared from soybean asolectin dissolved in n-decane (30 mg/ml). Purified VDAC1 (1 ng) was added to the chamber defined as the cis side containing 1 M NaCl, 10 mM Hepes, pH 7.4. Currents were recorded under voltage-clamp using a Bilayer Clamp BC-535B amplifier (Warner Instrument, Hamden, Conn.). The currents, measured with respect to the trans side of the membrane (ground), were low-pass-filtered at 1 kHz and digitized online using a Digidata1440-interface board and pClampex 10.2 software (Axon Instruments, Union City, Calif.).
VDAC1 was purified as described above in Methods (VDAC1 purification). Purified VDAC1 was reconstituted into a planar lipid bilayer (PLB) membrane and currents through VDAC1, in response to a voltage steps from 0 to +10 mV, from 0 to −10 mV, from 0 to +40 mV, and from 0 to −40 mV, were recorded before and 15 min after the addition of 20 μM of the compound of Formula 3 (VBIT-12).
Solid circles indicate conductance without VBIT-12, open circles with 20 μM VBIT-12.
Further, the VDAC1 channel conductance was measured with the increasing concentrations of VBIT-12, or of compound of Formula 1 (VBIT-4). Concentration dependence of VBIT-12 reducing VDAC1 channel conductance was measured at +10 my and at −10 mV.

T1 sequence (Q9Z2L0 whole entry): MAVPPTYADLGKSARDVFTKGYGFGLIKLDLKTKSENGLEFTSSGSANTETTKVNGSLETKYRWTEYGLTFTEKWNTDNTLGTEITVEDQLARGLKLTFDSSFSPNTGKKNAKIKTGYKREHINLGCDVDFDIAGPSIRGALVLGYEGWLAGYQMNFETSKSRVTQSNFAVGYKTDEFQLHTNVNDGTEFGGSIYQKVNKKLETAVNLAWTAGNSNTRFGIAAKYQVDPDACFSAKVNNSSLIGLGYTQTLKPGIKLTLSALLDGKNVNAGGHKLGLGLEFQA

IC50 (purified rat VDAC1)	Max Inhibition (maximal reduction in channel conductance) (purified rat VDAC1)	affinity to VDAC1 relative to VBIT-4 (purified rat VDAC1; from concentration dependence of channel conductance)	Compound	apoptotic cell death (HeLa cells; 2-20 μM 1 hour, then selenite 25 μM 3 hours)	IC50 (HEK-293 cells)	cell death as induced by selenite (HeLa cells; 22 h with selenite 8 μM and increasing concentrations)	decrease in maximal channel conductance relative to VBIT-4 (purified rat VDAC1)	VDAC1 conductance in multi-channel experiments as function of voltage (purified rat VDAC1; 20 μM)	VDAC1 channel conductance (purified rat VDAC1; 20 μM, 15 min after addition, voltage steps 0 to ±10 mV and ±40 mV)
15 µM	50%		O=C(CC(CO)N1CCN(c2ccc(OC(F)(F)F)cc2)CC1)Nc1ccc(Cl)cc1 (racemic) [Formula 1, N-(4-chlorophenyl)-4-hydroxy-3-(4-(4-(trifluoromethoxy)phenyl)-piperazin-1-yl)butanamide]	Inhibit Apoptotic Cell Death	2.9 ± 0.12 µM				
5 µM	80%	higher affinity than VBIT-4	O=C(O)CNC(=O)C1(Nc2ccccc2)CCN(Cc2cccc3ccccc23)CC1 [Formula 3]			inhibited	higher decrease in the maximal channel conductance	stabilizing VDAC1 at a low conductance state at all voltages tested	Channel conductance was reduced and the channel was stabilized in a low conducting state
